Source: ChEMBL document CHEMBL4507268 (2021)

Legend:
Details in all cases: Compound concentration 1000.0 nM
[1] = tested on: Tyrosine-protein kinase ABL1 (Homo sapiens), P00519 [Q252H]
[2] = biological target: Myotonin-protein kinase (Homo sapiens) (UniProt Q09013)
[3] = biological target: T1, Serine/threonine-protein kinase 17A (Homo sapiens) (UniProt Q9UEE5)
T1 sequence (whole entry): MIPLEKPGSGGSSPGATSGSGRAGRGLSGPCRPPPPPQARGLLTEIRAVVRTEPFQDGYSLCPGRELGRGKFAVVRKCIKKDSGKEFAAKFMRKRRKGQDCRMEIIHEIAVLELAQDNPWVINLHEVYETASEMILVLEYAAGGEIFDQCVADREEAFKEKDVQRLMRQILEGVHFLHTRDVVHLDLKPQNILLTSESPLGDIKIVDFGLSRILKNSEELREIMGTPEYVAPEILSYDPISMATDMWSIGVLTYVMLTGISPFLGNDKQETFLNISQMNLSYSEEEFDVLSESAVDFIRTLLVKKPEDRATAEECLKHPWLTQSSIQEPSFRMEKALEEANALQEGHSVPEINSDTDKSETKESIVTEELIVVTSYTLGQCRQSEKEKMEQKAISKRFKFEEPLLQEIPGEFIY

[4] = tested on: Epidermal growth factor receptor (Homo sapiens), P00533 [L858R]
[5] = biological target: Tyrosine-protein kinase HCK (Homo sapiens) (UniProt P08631)
[6] = biological target: Serine/threonine-protein kinase LATS2 (Homo sapiens) (UniProt Q9NRM7)
[7] = biological target: T2, Serine/threonine-protein kinase D2 (Homo sapiens) (UniProt Q9BZL6)
T2 sequence (whole entry): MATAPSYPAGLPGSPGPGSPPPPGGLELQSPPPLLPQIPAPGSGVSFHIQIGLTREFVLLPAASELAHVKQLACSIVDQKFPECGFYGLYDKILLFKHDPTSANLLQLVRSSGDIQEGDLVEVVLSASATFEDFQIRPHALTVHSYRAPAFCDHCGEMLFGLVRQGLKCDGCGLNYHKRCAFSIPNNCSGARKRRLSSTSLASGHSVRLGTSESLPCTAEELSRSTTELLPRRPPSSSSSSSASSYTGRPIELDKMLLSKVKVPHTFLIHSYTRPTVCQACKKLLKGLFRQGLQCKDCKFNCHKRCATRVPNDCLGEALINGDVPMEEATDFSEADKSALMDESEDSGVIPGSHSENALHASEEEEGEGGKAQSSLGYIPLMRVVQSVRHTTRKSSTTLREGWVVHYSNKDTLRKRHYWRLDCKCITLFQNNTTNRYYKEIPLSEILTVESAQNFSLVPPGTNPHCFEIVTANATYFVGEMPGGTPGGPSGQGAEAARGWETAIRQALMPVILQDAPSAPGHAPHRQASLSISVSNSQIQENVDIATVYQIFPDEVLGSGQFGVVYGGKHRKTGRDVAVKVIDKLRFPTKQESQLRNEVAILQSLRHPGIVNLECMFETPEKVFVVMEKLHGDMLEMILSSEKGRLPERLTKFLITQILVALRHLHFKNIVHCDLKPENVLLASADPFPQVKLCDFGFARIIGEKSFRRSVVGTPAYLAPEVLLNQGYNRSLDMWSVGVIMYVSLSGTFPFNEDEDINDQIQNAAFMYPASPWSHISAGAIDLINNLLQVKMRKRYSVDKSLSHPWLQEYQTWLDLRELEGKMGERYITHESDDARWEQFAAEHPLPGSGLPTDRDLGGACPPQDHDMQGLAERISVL

[8] = biological target: T3, SNF-related serine/threonine-protein kinase (Homo sapiens) (UniProt Q9NRH2)
T3 sequence (whole entry): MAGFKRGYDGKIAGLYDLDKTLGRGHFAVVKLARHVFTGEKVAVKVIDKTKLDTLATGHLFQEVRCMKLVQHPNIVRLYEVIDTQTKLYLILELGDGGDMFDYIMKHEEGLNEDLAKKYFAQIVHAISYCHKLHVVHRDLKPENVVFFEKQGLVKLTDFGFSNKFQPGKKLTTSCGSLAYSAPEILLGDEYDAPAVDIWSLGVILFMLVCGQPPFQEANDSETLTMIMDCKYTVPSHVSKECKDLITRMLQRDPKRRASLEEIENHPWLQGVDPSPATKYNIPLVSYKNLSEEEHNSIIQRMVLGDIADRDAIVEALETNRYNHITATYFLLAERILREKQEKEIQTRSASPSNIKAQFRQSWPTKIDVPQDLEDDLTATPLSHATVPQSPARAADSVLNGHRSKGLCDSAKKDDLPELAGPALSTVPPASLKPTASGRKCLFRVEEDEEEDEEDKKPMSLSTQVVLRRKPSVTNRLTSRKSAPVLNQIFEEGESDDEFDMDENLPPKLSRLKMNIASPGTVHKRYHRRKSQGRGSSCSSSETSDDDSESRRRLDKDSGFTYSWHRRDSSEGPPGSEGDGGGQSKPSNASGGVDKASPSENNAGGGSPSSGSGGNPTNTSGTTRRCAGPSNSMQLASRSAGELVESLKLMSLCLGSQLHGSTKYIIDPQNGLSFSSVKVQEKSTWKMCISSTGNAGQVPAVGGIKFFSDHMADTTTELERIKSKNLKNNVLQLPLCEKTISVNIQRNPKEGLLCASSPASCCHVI

[9] = biological target: T4, Tyrosine-protein kinase TXK (Homo sapiens) (UniProt P42681)
T4 sequence (whole entry): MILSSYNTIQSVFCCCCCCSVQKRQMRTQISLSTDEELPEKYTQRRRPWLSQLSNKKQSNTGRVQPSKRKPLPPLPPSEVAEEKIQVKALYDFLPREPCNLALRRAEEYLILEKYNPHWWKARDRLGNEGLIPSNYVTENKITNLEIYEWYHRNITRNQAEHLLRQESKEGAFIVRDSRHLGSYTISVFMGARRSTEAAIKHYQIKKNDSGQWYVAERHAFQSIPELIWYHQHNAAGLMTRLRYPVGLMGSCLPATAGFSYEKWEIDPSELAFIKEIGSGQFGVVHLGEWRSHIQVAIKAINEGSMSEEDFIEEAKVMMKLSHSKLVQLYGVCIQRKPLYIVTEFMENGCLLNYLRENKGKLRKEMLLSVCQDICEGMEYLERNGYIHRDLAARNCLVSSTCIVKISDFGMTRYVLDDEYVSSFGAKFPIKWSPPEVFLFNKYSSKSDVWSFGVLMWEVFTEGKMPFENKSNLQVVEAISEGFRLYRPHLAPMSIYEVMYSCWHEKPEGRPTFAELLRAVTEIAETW

Measured: residual activity

Myotonin-protein kinase (Homo sapiens), sequence (Q09013 whole entry): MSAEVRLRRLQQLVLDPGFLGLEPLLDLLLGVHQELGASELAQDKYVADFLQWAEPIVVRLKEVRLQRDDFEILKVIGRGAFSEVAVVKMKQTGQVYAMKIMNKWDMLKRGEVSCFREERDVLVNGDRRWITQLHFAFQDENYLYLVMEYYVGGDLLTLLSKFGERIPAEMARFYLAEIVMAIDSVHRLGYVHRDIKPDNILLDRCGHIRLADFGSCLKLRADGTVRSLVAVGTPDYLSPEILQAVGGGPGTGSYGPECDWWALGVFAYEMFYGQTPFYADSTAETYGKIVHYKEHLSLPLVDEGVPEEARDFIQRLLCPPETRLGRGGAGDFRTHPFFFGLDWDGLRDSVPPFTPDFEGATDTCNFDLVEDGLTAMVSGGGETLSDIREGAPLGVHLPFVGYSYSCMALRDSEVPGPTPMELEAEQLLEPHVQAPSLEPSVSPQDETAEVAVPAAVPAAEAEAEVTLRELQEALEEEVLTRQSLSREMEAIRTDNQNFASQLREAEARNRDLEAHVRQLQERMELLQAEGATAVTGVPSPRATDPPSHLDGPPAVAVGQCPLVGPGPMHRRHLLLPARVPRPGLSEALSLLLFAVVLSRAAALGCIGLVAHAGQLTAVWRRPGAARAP
Serine/threonine-protein kinase LATS2 (Homo sapiens), sequence (Q9NRM7 whole entry): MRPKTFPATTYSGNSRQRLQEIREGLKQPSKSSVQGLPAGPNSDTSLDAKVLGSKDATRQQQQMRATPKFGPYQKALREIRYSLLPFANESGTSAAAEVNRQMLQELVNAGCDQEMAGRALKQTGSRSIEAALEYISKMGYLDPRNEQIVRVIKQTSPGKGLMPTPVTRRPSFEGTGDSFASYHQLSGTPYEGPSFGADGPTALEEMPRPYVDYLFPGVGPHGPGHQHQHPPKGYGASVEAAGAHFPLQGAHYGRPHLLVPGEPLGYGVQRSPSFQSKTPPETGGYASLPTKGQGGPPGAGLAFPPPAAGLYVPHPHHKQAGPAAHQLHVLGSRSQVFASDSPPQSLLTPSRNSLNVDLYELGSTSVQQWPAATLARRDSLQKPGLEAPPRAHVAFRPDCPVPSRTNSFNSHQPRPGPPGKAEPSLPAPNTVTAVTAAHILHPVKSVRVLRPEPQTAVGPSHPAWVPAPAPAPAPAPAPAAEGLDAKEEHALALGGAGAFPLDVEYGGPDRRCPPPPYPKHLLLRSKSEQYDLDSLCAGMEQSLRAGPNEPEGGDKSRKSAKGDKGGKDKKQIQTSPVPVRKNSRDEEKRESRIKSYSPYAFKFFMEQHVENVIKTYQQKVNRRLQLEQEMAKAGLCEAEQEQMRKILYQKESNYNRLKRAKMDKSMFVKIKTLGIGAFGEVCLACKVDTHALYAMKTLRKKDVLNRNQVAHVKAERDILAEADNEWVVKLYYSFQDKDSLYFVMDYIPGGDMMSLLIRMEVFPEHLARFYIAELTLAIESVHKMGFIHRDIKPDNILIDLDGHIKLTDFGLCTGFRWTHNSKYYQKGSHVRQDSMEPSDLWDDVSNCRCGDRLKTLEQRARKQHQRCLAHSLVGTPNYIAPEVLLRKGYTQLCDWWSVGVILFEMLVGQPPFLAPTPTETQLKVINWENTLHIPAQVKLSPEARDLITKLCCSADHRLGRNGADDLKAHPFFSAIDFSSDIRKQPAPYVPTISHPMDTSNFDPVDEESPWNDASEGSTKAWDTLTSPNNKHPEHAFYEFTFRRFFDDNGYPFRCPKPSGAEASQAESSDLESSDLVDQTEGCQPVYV
Tyrosine-protein kinase HCK (Homo sapiens), sequence (P08631 2-526 limits assumed): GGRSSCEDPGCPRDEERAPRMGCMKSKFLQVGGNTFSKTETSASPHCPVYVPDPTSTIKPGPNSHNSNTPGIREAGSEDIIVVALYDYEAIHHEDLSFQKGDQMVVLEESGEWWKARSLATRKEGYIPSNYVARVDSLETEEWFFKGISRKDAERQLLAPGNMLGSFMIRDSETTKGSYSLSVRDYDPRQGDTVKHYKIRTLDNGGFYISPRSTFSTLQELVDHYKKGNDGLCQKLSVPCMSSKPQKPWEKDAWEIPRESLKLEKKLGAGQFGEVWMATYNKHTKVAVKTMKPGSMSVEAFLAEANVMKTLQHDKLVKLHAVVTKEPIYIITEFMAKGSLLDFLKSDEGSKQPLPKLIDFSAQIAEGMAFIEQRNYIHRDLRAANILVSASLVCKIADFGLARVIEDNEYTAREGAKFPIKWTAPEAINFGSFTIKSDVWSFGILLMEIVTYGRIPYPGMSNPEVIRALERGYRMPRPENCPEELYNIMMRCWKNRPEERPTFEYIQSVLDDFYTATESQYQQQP

Cc1nc(C2CCN(C(=O)c3ccc(OC(F)(F)F)cc3N)CC2)c2ncc(N3CCN(C)CC3)cc2n1 [BAY-693]
inactive: [1] 81% | [2] 100% | [3] 100% | [4] 89% | [5] 95% | [6] 100% | [7] 92% | [8] 78% | [9] 100%

CN1CCN(c2cnc3c(C4CCN(C(=O)c5ccc(OC(F)(F)F)cc5N)CC4)ncnc3c2)CC1 [BAY-885]
inactive: [1] 79% | [2] 89% | [3] 92% | [4] 100% | [5] 95% | [6] 100% | [7] 100% | [8] 87% | [9] 88%
